Results reported in patent US20100298285A1, “Biclycloheteroaryl Compounds as P2x7 Modulators and Uses Thereof” (priority 2006, published 2010).

Tested on: IL-1β release, THP-1 cells
Experiment: IL-1β release assay in differentiated THP-1 cells stimulated with BzATP (Example 9)
Format: cell-based
Details: Homo sapiens; for inhibition at 0.3 µM: 0.3 μM compound ("+" symbols); for inhibition at 0.3 µM / inhibition at 0.1 µM: differentiated THP-1 cells, 250 uM BzATP, read-out: IL-1β% Inhib. @ 0.3 or 0.1 μM; for IC50: THP-1 cells, BzATP 250 uM, four parameter logistic fit; for inhibition at 0.1 µM: 0.1 μM compound ("*" symbols)
Protocol: THP-1 cells (ATCC Cat # 285-IF-100) are plated in 96 well plates at a concentration of 200,000 cells per well and allowed to differentiate in RPMI-1640 media (ATCC Cat # 30-2001) containing 10% FBS, 100 IU/mL penicillin, 100 ug/mL streptomycin, 100 ng/mL LPS and 100 ng/mL IFN-γ for 16 hours. Following differentiation, the cells are treated for an additional 2 hours in RPMI-1640 media containing 100 IU/mL penicillin, 100 ug/mL streptomycin and fresh LPS at 100 ng/mL. The cells are then pretreated for 30 minutes with the compound of interest at the appropriate concentration in RPMI media containing 100 IU/mL penicillin, 100 ug/mL streptomycin. Following the pretreatment 2′,3′-O-(4-benzoylbenzoyl)-adenosine 5′-triphosphate (Sigma Aldrich Cat # B6396) is added to a final concentration of 250 uM and the cells are incubated for an additional 45 minutes. 30 uL of cell supernatant is then collected and IL-1β levels determined via ELISA (R&D systems Cat. # HSLB50) according to manufacturer's recommendations using the Tecan Safire plate reader. Background adjusted IL-1β levels of drug treated and non-treated cells are used to calculate the percent inhibition.
The following compounds have been or can be prepared according to the synthetic methods described above. For the purpose of Table 1 below, activity of each compound, which can be determined using the IL-1β assay method described in Example 9, is expressed as follows: […]
The compounds set forth in Table 1 were tested for activity in a cellular model as described herein. Specifically, cells were pretreated with differing amounts of the compound under test and released IL-1β determined as in Example 9, above. Measurements were made and IC50 values, presented in Table 2, below, were determined by fitting the data to a four parameter logistic equation using GraphPad Prism software (GraphPad Software, Inc). The equation may be expressed by the following formula:
Y=Bottom+(Top−Bottom)/(1+10̂((Log EC50−X)*HillSlope))
Where X is the logarithm of concentration, Y is the response and Y starts at Bottom and goes to Top with a sigmoid shape.

Compound | inhibition at 0.3 µM [%] | IC50 [nM] | inhibition at 0.1 µM [%]
O=C(Cc1ccc(C(F)(F)F)cc1)Nc1c(Cl)ccc2c1CCN(S(=O)(=O)c1ccccc1Cl)C2 [Compound 3001, N-[6-Chloro-2-(2-chloro-benzenesulfonyl)-1,2,3,4-tetrahydro-isoquinolin-5-yl]-2-(4-trifluoromethyl-phenyl)-acetamide] | ≥ 76 | 49.3 | 
O=C(Cc1ccc(C(F)(F)F)cc1)Nc1c(Cl)ccc2c1CCN(S(=O)(=O)c1ccccc1F)C2 [Compound 3002] |  |  | 0 to 25
O=C(Cc1ccc(C(F)(F)F)cc1)Nc1c(Cl)ccc2c1CCN(S(=O)(=O)c1cccc(F)c1)C2 [Compound 3003] |  |  | 0 to 25
O=C(Cc1ccc(C(F)(F)F)cc1)Nc1c(Cl)ccc2c1CCN(S(=O)(=O)c1ccc(F)cc1)C2 [Compound 3004] |  |  | 0 to 25
O=C(Cc1ccc(C(F)(F)F)cc1)Nc1c(Cl)ccc2c1CCN(S(=O)(=O)c1ccc(F)c(F)c1)C2 [Compound 3005] |  |  | 0 to 25
O=C(Cc1ccc(C(F)(F)F)cc1)Nc1c(Cl)ccc2c1CCN(S(=O)(=O)c1cc(F)cc(F)c1)C2 [Compound 3006] |  |  | 0 to 25
O=C(Cc1ccc(C(F)(F)F)cc1)Nc1c(Cl)ccc2c1CCN(S(=O)(=O)c1ccc(F)cc1F)C2 [Compound 3007] |  |  | 0 to 25
O=C(Cc1ccc(C(F)(F)F)cc1)Nc1c(Cl)ccc2c1CCN(S(=O)(=O)c1cc(F)ccc1F)C2 [Compound 3008] |  |  | 0 to 25
O=C(Cc1ccc(C(F)(F)F)cc1)Nc1c(Cl)ccc2c1CCN(S(=O)(=O)c1c(F)cccc1F)C2 [Compound 3009] |  |  | 0 to 25
Cc1cc(F)ccc1S(=O)(=O)N1CCc2c(ccc(Cl)c2NC(=O)Cc2ccc(C(F)(F)F)cc2)C1 [Compound 3010] |  |  | 0 to 25
Cc1ccc(F)cc1S(=O)(=O)N1CCc2c(ccc(Cl)c2NC(=O)Cc2ccc(C(F)(F)F)cc2)C1 [Compound 3011] |  |  | 0 to 25
O=C(Cc1ccc(C(F)(F)F)cc1)Nc1c(Cl)ccc2c1CCN(S(=O)(=O)c1cccc(Cl)c1)C2 [Compound 3012] |  |  | 0 to 25
O=C(Cc1ccc(C(F)(F)F)cc1)Nc1c(Cl)ccc2c1CCN(S(=O)(=O)c1ccc(Cl)cc1)C2 [Compound 3013] |  |  | 0 to 25
O=C(Cc1ccc(C(F)(F)F)cc1)Nc1c(Cl)ccc2c1CCN(S(=O)(=O)c1cccc(Cl)c1Cl)C2 [Compound 3014] |  |  | 0 to 25
O=C(Cc1ccc(C(F)(F)F)cc1)Nc1c(Cl)ccc2c1CCN(S(=O)(=O)c1cc(Cl)cc(Cl)c1)C2 [Compound 3015] |  |  | 0 to 25
O=C(Cc1ccc(C(F)(F)F)cc1)Nc1c(Cl)ccc2c1CCN(S(=O)(=O)c1ccc(Cl)cc1F)C2 [Compound 3016] |  |  | 0 to 25
O=C(Cc1ccc(C(F)(F)F)cc1)Nc1c(Cl)ccc2c1CCN(S(=O)(=O)c1ccc(F)cc1Cl)C2 [Compound 3017] |  |  | 0 to 25
O=C(Cc1ccc(C(F)(F)F)cc1)Nc1c(Cl)ccc2c1CCN(S(=O)(=O)c1cc(Cl)ccc1F)C2 [Compound 3018] |  |  | 0 to 25
O=C(Cc1ccc(C(F)(F)F)cc1)Nc1c(Cl)ccc2c1CCN(S(=O)(=O)c1cccc(Cl)c1F)C2 [Compound 3019] |  |  | 0 to 25
O=C(Cc1ccc(C(F)(F)F)cc1)Nc1c(Cl)ccc2c1CCN(S(=O)(=O)c1ccc(Cl)c(C(F)(F)F)c1)C2 [Compound 3020] |  |  | 0 to 25
O=C(Cc1ccc(C(F)(F)F)cc1)Nc1c(Cl)ccc2c1CCN(S(=O)(=O)c1ccc(C(F)(F)F)cc1Cl)C2 [Compound 3021] |  |  | 0 to 25
O=C(Cc1ccc(C(F)(F)F)cc1)Nc1c(Cl)ccc2c1CCN(S(=O)(=O)c1cc(C(F)(F)F)ccc1Cl)C2 [Compound 3022] |  |  | 0 to 25

Compound | inhibition at 0.3 µM [%] | IC50 [nM] | inhibition at 0.1 µM [%]
Cc1ccccc1S(=O)(=O)N1CCc2c(ccc(Cl)c2NC(=O)Cc2ccc(C(F)(F)F)cc2)C1 [Compound 3023] |  |  | 0 to 25
Cc1cccc(S(=O)(=O)N2CCc3c(ccc(Cl)c3NC(=O)Cc3ccc(C(F)(F)F)cc3)C2)c1 [Compound 3024] |  |  | 0 to 25
Cc1ccc(C)c(S(=O)(=O)N2CCc3c(ccc(Cl)c3NC(=O)Cc3ccc(C(F)(F)F)cc3)C2)c1 [Compound 3025] | ≥ 76 | 84 | 
Cc1ccc(S(=O)(=O)N2CCc3c(ccc(Cl)c3NC(=O)Cc3ccc(C(F)(F)F)cc3)C2)c(C)c1 [Compound 3026] |  |  | 0 to 25
N#Cc1ccccc1S(=O)(=O)N1CCc2c(ccc(Cl)c2NC(=O)Cc2ccc(C(F)(F)F)cc2)C1 [Compound 3027] |  |  | 0 to 25
N#Cc1cccc(S(=O)(=O)N2CCc3c(ccc(Cl)c3NC(=O)Cc3ccc(C(F)(F)F)cc3)C2)c1 [Compound 3028] |  |  | 0 to 25
N#Cc1ccc(S(=O)(=O)N2CCc3c(ccc(Cl)c3NC(=O)Cc3ccc(C(F)(F)F)cc3)C2)cc1 [Compound 3029] |  |  | 0 to 25
COc1cccc(S(=O)(=O)N2CCc3c(ccc(Cl)c3NC(=O)Cc3ccc(C(F)(F)F)cc3)C2)c1 [Compound 3030] |  |  | 0 to 25
O=C(Cc1ccc(C(F)(F)F)cc1)Nc1c(Cl)ccc2c1CCN(S(=O)(=O)c1ccccc1C(F)(F)F)C2 [Compound 3031] |  |  | 0 to 25
O=C(Cc1ccc(C(F)(F)F)cc1)Nc1c(Cl)ccc2c1CCN(S(=O)(=O)c1cccc(C(F)(F)F)c1)C2 [Compound 3032] |  |  | 0 to 25
O=C(Cc1ccc(C(F)(F)F)cc1)Nc1c(Cl)ccc2c1CCN(S(=O)(=O)c1ccc(C(F)(F)F)cc1)C2 [Compound 3033] |  |  | 0 to 25
O=C(Cc1ccc(C(F)(F)F)cc1)Nc1c(Cl)ccc2c1CCN(S(=O)(=O)c1ccccc1OC(F)(F)F)C2 [Compound 3034] |  |  | 0 to 25
CN(C)CCC(=O)N1CCc2c(cccc2NC(=O)Cc2ccc(C(F)(F)F)c(F)c2)C1 [Compound 3035] |  | 967 | 0 to 25
O=C(Cc1ccc(C(F)(F)F)c(F)c1)Nc1cccc2c1CCN(C(=O)C1COc3ccccc3O1)C2 (centres unmarked) [Compound 3036] | 0 to 25 | > 1000 | 
O=C(Cc1ccc(C(F)(F)F)c(F)c1)Nc1cccc2c1CCN(C(=O)[C@H]1COc3ccccc3O1)C2 [Compound 3037] | ≥ 76 | 145 | 
O=C(Cc1ccc(C(F)(F)F)c(F)c1)Nc1cccc2c1CCN(C(=O)C1CCOCC1)C2 [Compound 3038] | 0 to 25 | 430 | 
O=C(Cc1ccc(C(F)(F)F)c(F)c1)Nc1cccc2c1CCN(C(=O)C1CCOC1)C2 (centres unmarked) [Compound 3039] | 26 to 50 | 443 | 
O=C(Cc1ccc(C(F)(F)F)c(F)c1)Nc1cccc2c1CCN(C(=O)C1COc3ccccc3C1)C2 (centres unmarked) [Compound 3040] | ≥ 76 | 64.2 | 
O=C(Cc1ccc(C(F)(F)F)c(F)c1)Nc1cccc2c1CCN(C(=O)C1CC1)C2 [Compound 3041] | 0 to 25 | 495 | 
O=C(Cc1ccc(C(F)(F)F)c(F)c1)Nc1cccc2c1CCN(C(=O)CC1CCCCC1)C2 [Compound 3042] | ≥ 76 | 153 | 
O=C(Cc1ccc(C(F)(F)F)c(F)c1)Nc1cccc2c1CCN(C(=O)CC1CCCCCC1)C2 [Compound 3043] | ≥ 76 | 82.5 | 
Cc1ncccc1C(=O)N1CCc2c(cccc2NC(=O)Cc2ccc(C(F)(F)F)c(F)c2)C1 [Compound 3044] | 0 to 25 | > 1000 | 
